Results reported in ChEMBL document CHEMBL1141341, “Minor sesquiterpene lactones from Centaurea pullata and their antimicrobial activity” (2007).
≈ marks a conversion by molar mass, not a printed value.

What was measured:
Talaromyces funiculosus = test: Antifungal activity against Penicillium funiculosum ATCC 36839 by microdilution technique; format: functional
Fusarium tricinctum = test: Antifungal activity against Fusarium tricinctum CBS 514478 by microdilution technique; format: functional
[1] = tested on: Staphylococcus epidermidis; test: Antibacterial activity against Staphylococcus epidermidis ATCC 12228 by microdilution technique; format: functional
Alternaria alternata = test: Antifungal activity against Alternaria alternata DSM 2006 by microdilution technique; format: functional
Micrococcus luteus = test: Antibacterial activity against Micrococcus flavus ATCC 10240 by microdilution technique; format: functional
Bacillus subtilis = test: Antibacterial activity against Bacillus subtilis ATCC 10907 by microdilution technique; format: functional
Aspergillus ochraceus = test: Antifungal activity against Aspergillus ochraceus ATCC 12066 by microdilution technique; format: functional
Aspergillus flavus = test: Antifungal activity against Aspergillus flavus ATCC 9643 by microdilution technique; format: functional
Penicillium ochrochloron = test: Antifungal activity against Penicillium ochrochloron ATCC 9112 by microdilution technique; format: functional
Pseudomonas tolaasii = test: Antibacterial activity against Pseudomonas tolaasii by microdilution technique; format: functional
Trichoderma viride = test: Antifungal activity against Trichoderma viride IAM 5061 by microdilution technique; format: functional
Aspergillus niger = test: Antifungal activity against Aspergillus niger ATCC 6275 by microdilution technique; format: functional
Escherichia coli = test: Antibacterial activity against Escherichia coli ATCC 35210 by microdilution technique; format: functional
Salmonella enteritidis = test: Antibacterial activity against Salmonella enteritidis by microdilution technique; format: functional, Salmonella enterica subsp. enterica serovar Enteritidis; details: Salmonella enterica

Structure (SMILES)	MFC (Talaromyces funiculosus) [µg/mL]	MIC (Talaromyces funiculosus) [µg/mL]	MFC (Fusarium tricinctum) [µg/mL]	MIC (Fusarium tricinctum) [µg/mL]	MBC [1] [µg/mL]	MIC [1] [µg/mL]	MFC (Alternaria alternata) [µg/mL]	MIC (Alternaria alternata) [µg/mL]	MBC (Micrococcus luteus) [µg/mL]	MIC (Micrococcus luteus) [µg/mL]	MBC (Bacillus subtilis) [µg/mL]	MIC (Bacillus subtilis) [µg/mL]	MFC (Aspergillus ochraceus) [µg/mL]	MIC (Aspergillus ochraceus) [µg/mL]	MFC (Aspergillus flavus) [µg/mL]	MIC (Aspergillus flavus) [µg/mL]	MFC (Penicillium ochrochloron) [µg/mL]	MIC (Penicillium ochrochloron) [µg/mL]	MBC (Pseudomonas tolaasii) [µg/mL]	MIC (Pseudomonas tolaasii) [µg/mL]	other results
C=C(C(=O)O[C@H]1C/C(C)=C/CC/C(CO)=C/[C@H]2OC(=O)[C@H](C)[C@H]12)C(O)CO (stereo partly drawn)	0.3 (≈ 0.789 µM)	0.2 (≈ 0.526 µM)	0.2 (≈ 0.526 µM)	0.1 (≈ 0.263 µM)	0.4 (≈ 1.05 µM)	0.4 (≈ 1.05 µM)	0.2 (≈ 0.526 µM)	0.1 (≈ 0.263 µM)	0.3 (≈ 0.789 µM)	0.2 (≈ 0.526 µM)	0.2 (≈ 0.526 µM)	0.2 (≈ 0.526 µM)	0.2 (≈ 0.526 µM)	0.1 (≈ 0.263 µM)	0.2 (≈ 0.526 µM)	0.1 (≈ 0.263 µM)	0.2 (≈ 0.526 µM)	0.1 (≈ 0.263 µM)	0.3 (≈ 0.789 µM)	0.2 (≈ 0.526 µM)	MFC (Trichoderma viride): 0.3 µg/mL (≈ 0.789 µM); MIC (Trichoderma viride): 0.2 µg/mL (≈ 0.526 µM); MFC (Aspergillus niger): 0.3 µg/mL (≈ 0.789 µM); MIC (Aspergillus niger): 0.2 µg/mL (≈ 0.526 µM); MBC (Escherichia coli): 0.3 µg/mL (≈ 0.789 µM); MIC (Escherichia coli): 0.2 µg/mL (≈ 0.526 µM); MBC (Salmonella enteritidis): 0.3 µg/mL (≈ 0.789 µM); MIC (Salmonella enteritidis): 0.3 µg/mL (≈ 0.789 µM)
CC(=O)OC/C=C(/CO)C(=O)O[C@H]1C/C(C)=C/CC/C(CO)=C/[C@H]2OC(=O)[C@H](C)[C@H]12	0.3 (≈ 0.71 µM)	0.2 (≈ 0.473 µM)	0.3 (≈ 0.71 µM)	0.2 (≈ 0.473 µM)	0.5 (≈ 1.18 µM)	0.4 (≈ 0.947 µM)	0.3 (≈ 0.71 µM)	0.2 (≈ 0.473 µM)	0.3 (≈ 0.71 µM)	0.2 (≈ 0.473 µM)	0.3 (≈ 0.71 µM)	0.2 (≈ 0.473 µM)	0.2 (≈ 0.473 µM)	0.1 (≈ 0.237 µM)	0.2 (≈ 0.473 µM)	0.2 (≈ 0.473 µM)	0.2 (≈ 0.473 µM)	0.1 (≈ 0.237 µM)	0.3 (≈ 0.71 µM)	0.2 (≈ 0.473 µM)	MFC (Trichoderma viride): 0.3 µg/mL (≈ 0.71 µM); MIC (Trichoderma viride): 0.2 µg/mL (≈ 0.473 µM); MFC (Aspergillus niger): 0.3 µg/mL (≈ 0.71 µM); MIC (Aspergillus niger): 0.2 µg/mL (≈ 0.473 µM); MBC (Escherichia coli): 0.3 µg/mL (≈ 0.71 µM); MIC (Escherichia coli): 0.3 µg/mL (≈ 0.71 µM); MBC (Salmonella enteritidis): 0.3 µg/mL (≈ 0.71 µM); MIC (Salmonella enteritidis): 0.3 µg/mL (≈ 0.71 µM)
C=C(CCO)C(=O)O[C@H]1C/C(C)=C/CC/C(CO)=C/[C@H]2OC(=O)[C@H](C)[C@H]12	0.3 (≈ 0.823 µM)	0.2 (≈ 0.549 µM)	0.3 (≈ 0.823 µM)	0.2 (≈ 0.549 µM)	0.4 (≈ 1.1 µM)	0.4 (≈ 1.1 µM)	0.3 (≈ 0.823 µM)	0.2 (≈ 0.549 µM)	0.3 (≈ 0.823 µM)	0.2 (≈ 0.549 µM)	0.2 (≈ 0.549 µM)	0.2 (≈ 0.549 µM)	0.2 (≈ 0.549 µM)	0.1 (≈ 0.274 µM)	0.2 (≈ 0.549 µM)	0.1 (≈ 0.274 µM)	0.2 (≈ 0.549 µM)	0.1 (≈ 0.274 µM)	0.3 (≈ 0.823 µM)	0.3 (≈ 0.823 µM)	MFC (Trichoderma viride): 0.3 µg/mL (≈ 0.823 µM); MIC (Trichoderma viride): 0.2 µg/mL (≈ 0.549 µM); MFC (Aspergillus niger): 0.3 µg/mL (≈ 0.823 µM); MIC (Aspergillus niger): 0.2 µg/mL (≈ 0.549 µM); MBC (Escherichia coli): 0.2 µg/mL (≈ 0.549 µM); MIC (Escherichia coli): 0.2 µg/mL (≈ 0.549 µM); MBC (Salmonella enteritidis): 0.3 µg/mL (≈ 0.823 µM); MIC (Salmonella enteritidis): 0.3 µg/mL (≈ 0.823 µM)
C=C(CCO)C(=O)O[C@H]1C[C@]2(C)C([C@H](C=O)CC[C@H]2O)[C@H]2OC(=O)[C@H](C)[C@H]12 (stereo partly drawn)	0.4 (≈ 1.05 µM)	0.3 (≈ 0.789 µM)	0.3 (≈ 0.789 µM)	0.2 (≈ 0.526 µM)	0.5 (≈ 1.31 µM)	0.4 (≈ 1.05 µM)	0.3 (≈ 0.789 µM)	0.2 (≈ 0.526 µM)	0.3 (≈ 0.789 µM)	0.2 (≈ 0.526 µM)	0.3 (≈ 0.789 µM)	0.2 (≈ 0.526 µM)	0.3 (≈ 0.789 µM)	0.2 (≈ 0.526 µM)	0.3 (≈ 0.789 µM)	0.2 (≈ 0.526 µM)	0.4 (≈ 1.05 µM)	0.3 (≈ 0.789 µM)	0.5 (≈ 1.31 µM)	0.4 (≈ 1.05 µM)	MFC (Trichoderma viride): 0.4 µg/mL (≈ 1.05 µM); MIC (Trichoderma viride): 0.3 µg/mL (≈ 0.789 µM); MFC (Aspergillus niger): 0.3 µg/mL (≈ 0.789 µM); MIC (Aspergillus niger): 0.2 µg/mL (≈ 0.526 µM); MBC (Escherichia coli): 0.4 µg/mL (≈ 1.05 µM); MIC (Escherichia coli): 0.4 µg/mL (≈ 1.05 µM); MBC (Salmonella enteritidis): 0.4 µg/mL (≈ 1.05 µM); MIC (Salmonella enteritidis): 0.4 µg/mL (≈ 1.05 µM)
C=C(CCO)C(=O)O[C@H]1C[C@]2(C)C([C@H]3OC(=O)[C@H](C)[C@H]13)[C@@H](C=O)CC[C@H]2O (stereo partly drawn)	0.4 (≈ 1.05 µM)	0.3 (≈ 0.789 µM)	0.3 (≈ 0.789 µM)	0.2 (≈ 0.526 µM)	0.5 (≈ 1.31 µM)	0.4 (≈ 1.05 µM)	0.3 (≈ 0.789 µM)	0.2 (≈ 0.526 µM)	0.3 (≈ 0.789 µM)	0.2 (≈ 0.526 µM)	0.3 (≈ 0.789 µM)	0.2 (≈ 0.526 µM)	0.3 (≈ 0.789 µM)	0.2 (≈ 0.526 µM)	0.3 (≈ 0.789 µM)	0.2 (≈ 0.526 µM)	0.4 (≈ 1.05 µM)	0.3 (≈ 0.789 µM)	0.3 (≈ 0.789 µM)	0.2 (≈ 0.526 µM)	MFC (Trichoderma viride): 0.5 µg/mL (≈ 1.31 µM); MIC (Trichoderma viride): 0.4 µg/mL (≈ 1.05 µM); MFC (Aspergillus niger): 0.3 µg/mL (≈ 0.789 µM); MIC (Aspergillus niger): 0.2 µg/mL (≈ 0.526 µM); MBC (Escherichia coli): 0.4 µg/mL (≈ 1.05 µM); MIC (Escherichia coli): 0.4 µg/mL (≈ 1.05 µM); MBC (Salmonella enteritidis): 0.4 µg/mL (≈ 1.05 µM); MIC (Salmonella enteritidis): 0.4 µg/mL (≈ 1.05 µM)
CN[C@@H]1[C@H](O[C@H]2[C@H](O[C@H]3[C@H](O)[C@@H](O)[C@H](N=C(N)N)[C@@H](O)[C@@H]3N=C(N)N)O[C@@H](C)[C@]2(O)C=O)O[C@@H](CO)[C@H](O)[C@H]1O (stereo in doubt) [STREPTOMYCIN]					1 (≈ 1.72 µM)	1 (≈ 1.72 µM)			1 (≈ 1.72 µM)	0.5 (≈ 0.86 µM)	0.5 (≈ 0.86 µM)	0.5 (≈ 0.86 µM)							2 (≈ 3.44 µM)	1 (≈ 1.72 µM)	MBC (Escherichia coli): 1 µg/mL (≈ 1.72 µM); MIC (Escherichia coli): 0.5 µg/mL (≈ 0.86 µM); MBC (Salmonella enteritidis): 1 µg/mL (≈ 1.72 µM); MIC (Salmonella enteritidis): 1 µg/mL (≈ 1.72 µM)
Clc1ccc(COC(Cn2ccnc2)c2ccc(Cl)cc2Cl)c(Cl)c1 (stereo not drawn) [MICONAZOLE]	5 (≈ 12 µM)	2 (≈ 4.81 µM)	1 (≈ 2.4 µM)	0.2 (≈ 0.481 µM)			1 (≈ 2.4 µM)	0.2 (≈ 0.481 µM)					4 (≈ 9.61 µM)	1.5 (≈ 3.6 µM)	2 (≈ 4.81 µM)	0.5 (≈ 1.2 µM)	5 (≈ 12 µM)	2 (≈ 4.81 µM)			MFC (Trichoderma viride): 2 µg/mL (≈ 4.81 µM); MIC (Trichoderma viride): 2 µg/mL (≈ 4.81 µM); MFC (Aspergillus niger): 4 µg/mL (≈ 9.61 µM); MIC (Aspergillus niger): 1.5 µg/mL (≈ 3.6 µM)
